Data taken from PubChem BioAssay (NCI).
Where “and” joins values, the source holds several entries; their conditions need not be identical. Equal values may be shown once.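 Five compound concentrations were applied to cells in 96-well plates for 48 hours; endpoints were derived by simple linear interpolation of the resulting dose-response curve. GI50 is the concentration that inhibits growth by half. TGI: total growth inhibition.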

Key:
Assay in all cases: DTP human tumour cell line panel, 48 h
[1] = test system: SNB-75 CNS
[2] = test system: SN12C renal
[3] = test system: HS 578T breast
[4] = test system: T-47D breast
[5] = test system: EKVX NSCLC
[6] = test system: BT-549 breast
[7] = test system: HOP-92 NSCLC
[8] = test system: M14 melanoma
[9] = test system: PC-3 prostate
[10] = test system: OVCAR-3 ovarian
[11] = test system: UO-31 renal
[12] = test system: RXF 393 renal
[13] = test system: MALME-3M melanoma
[14] = test system: TK-10 renal
[15] = test system: OVCAR-4 ovarian
[16] = test system: CCRF-CEM leukemia
[17] = test system: DU-145 prostate
[18] = test system: A498 renal
[19] = test system: K-562 leukemia
[20] = test system: SK-MEL-28 melanoma
[21] = test system: OVCAR-5 ovarian
[22] = test system: LOX IMVI melanoma
[23] = test system: KM12 colon
[24] = test system: U251 CNS
[25] = test system: MDA-MB-231 breast
[26] = test system: CAKI-1 renal
[27] = test system: SK-MEL-5 melanoma
[28] = test system: HT29 colon
[29] = test system: OVCAR-8 ovarian
[30] = test system: COLO 205 colon
[31] = test system: NCI-H460 lung
[32] = test system: MDA-MB-435
[33] = test system: UACC-62 melanoma
[34] = test system: 786-0 renal
[35] = test system: RPMI-8226 leukemia
[36] = test system: A549 NSCLC
[37] = test system: HCT-15 colon
[38] = test system: SK-OV-3 ovarian
[39] = test system: HOP-62 NSCLC
[40] = test system: MOLT-4 leukemia
[41] = test system: NCI-H23 lung
[42] = test system: SR leukemia
[43] = test system: SK-MEL-2 melanoma
[44] = test system: UACC-257 melanoma
[45] = test system: NCI/ADR-RES ovarian
[46] = test system: IGROV1 ovarian
[47] = test system: ACHN renal
[48] = test system: NCI-H522 lung
[49] = test system: SF-268 CNS
[50] = test system: SF-539 CNS
[51] = test system: SW-620 colon
[52] = test system: NCI-H226 lung
[53] = test system: SF-295 CNS
[54] = test system: MCF7 breast
[55] = test system: HCT-116 colon
[56] = test system: MDA-N
[57] = test system: SNB-19 CNS
[58] = test system: HL-60(TB) leukemia
[59] = test system: HCC-2998 colon

SMILES: Cn1c(=O)c2[nH]c(SCCN3CCOCC3)nc2n(C)c1=S
- TGI [1]: > 100 µM
- TGI [2]: > 100 µM
- TGI [3]: > 100 µM
- TGI [4]: > 100 µM
- TGI [5]: > 100 µM
- TGI [6]: > 100 µM
- TGI [7]: > 100 µM
- TGI [8]: > 100 µM
- TGI [9]: > 100 µM
- TGI [10]: > 100 µM
- TGI [11]: > 100 µM
- TGI [12]: > 100 µM
- TGI [13]: > 100 µM
- TGI [14]: > 100 µM
- TGI [15]: > 100 µM
- TGI [16]: > 100 µM
- TGI [17]: > 100 µM
- TGI [18]: > 100 µM
- TGI [19]: > 100 µM
- TGI [20]: > 100 µM
- TGI [21]: > 100 µM
- TGI [22]: > 100 µM
- TGI [23]: > 100 µM
- TGI [24]: > 100 µM
- TGI [25]: > 100 µM
- TGI [26]: > 100 µM
- TGI [27]: > 100 µM
- TGI [28]: > 100 µM
- TGI [29]: > 100 µM
- TGI [30]: > 100 µM
- TGI [31]: > 100 µM
- TGI [32]: > 100 µM
- TGI [33]: > 100 µM
- TGI [34]: > 100 µM
- TGI [35]: > 100 µM
- TGI [36]: > 100 µM
- TGI [37]: > 100 µM
- TGI [38]: > 100 µM
- TGI [39]: > 100 µM
- TGI [40]: > 100 µM
- TGI [41]: > 100 µM
- TGI [42]: > 100 µM
- TGI [43]: > 100 µM
- TGI [44]: > 100 µM
- TGI [45]: > 100 µM
- TGI [46]: > 100 µM
- TGI [47]: > 100 µM
- TGI [48]: > 100 µM
- TGI [49]: > 100 µM
- TGI [50]: > 100 µM
- TGI [51]: > 100 µM
- TGI [52]: > 100 µM
- TGI [53]: > 100 µM
- TGI [54]: > 100 µM
- TGI [55]: > 100 µM
- TGI [56]: > 100 µM
- TGI [57]: > 100 µM
- TGI [58]: > 100 µM

SMILES: O=C1CC(C(OCc2ccccc2)C(OCc2ccccc2)C(COCc2ccccc2)OCc2ccccc2)CC(=O)N1 (stereo not given)
- GI50 [1]: 29.7 µM and > 75 µM
- TGI [1]: > 100 µM
- TGI [2]: > 100 µM
- TGI [3]: > 100 µM
- TGI [4]: 65.6 µM
- TGI [5]: > 100 µM
- TGI [6]: > 100 µM
- GI50 [7]: 90.7 µM and 30.3 µM
- TGI [7]: > 100 µM
- TGI [8]: > 100 µM
- TGI [9]: > 100 µM
- GI50 [11]: > 100 µM and 45.7 µM
- TGI [11]: > 100 µM
- TGI [12]: > 100 µM
- TGI [13]: > 100 µM
- TGI [14]: > 100 µM
- TGI [15]: > 100 µM
- GI50 [16]: 19.4 µM and 64.4 µM
- TGI [16]: 80.4 µM and > 75 µM
- TGI [17]: > 100 µM
- TGI [18]: > 100 µM
- GI50 [19]: > 100 µM and 41 µM
- TGI [19]: > 100 µM
- TGI [20]: > 100 µM
- TGI [21]: > 100 µM
- TGI [22]: > 100 µM
- GI50 [23]: > 100 µM and 37.9 µM
- TGI [23]: > 100 µM
- GI50 [24]: > 100 µM and 40 µM
- TGI [24]: > 100 µM
- TGI [25]: > 100 µM
- TGI [27]: > 100 µM
- TGI [28]: > 75 µM
- TGI [29]: > 100 µM
- TGI [30]: > 100 µM
- TGI [31]: > 100 µM
- TGI [32]: > 100 µM
- TGI [34]: > 100 µM
- TGI [59]: > 100 µM
- TGI [35]: > 100 µM
- TGI [36]: > 100 µM
- TGI [37]: > 100 µM
- GI50 [40]: > 100 µM and 37.7 µM
- TGI [40]: > 100 µM
- TGI [41]: > 100 µM
- TGI [42]: > 100 µM
- TGI [44]: > 100 µM
- TGI [45]: > 100 µM
- TGI [46]: > 100 µM
- TGI [47]: > 100 µM
- TGI [49]: > 100 µM
- TGI [50]: > 100 µM
- TGI [51]: > 100 µM
- TGI [52]: > 100 µM
- TGI [53]: > 100 µM
- TGI [54]: > 100 µM
- TGI [55]: > 100 µM
- TGI [56]: > 100 µM
- TGI [57]: > 100 µM
- TGI [58]: > 100 µM

SMILES: CCCC1C(=O)Nc2cccc3ncn(c23)C1=O (stereo not given)
- TGI [1]: > 100 µM
- TGI [2]: > 100 µM
- TGI [3]: > 100 µM
- TGI [4]: > 100 µM
- TGI [5]: > 100 µM
- TGI [6]: > 100 µM
- TGI [7]: > 100 µM
- TGI [8]: > 100 µM
- TGI [9]: > 100 µM
- TGI [10]: > 100 µM
- TGI [11]: > 100 µM
- TGI [12]: > 100 µM
- TGI [13]: > 100 µM
- TGI [15]: > 100 µM
- TGI [16]: > 100 µM
- TGI [17]: > 100 µM
- TGI [18]: > 100 µM
- TGI [19]: > 100 µM
- TGI [20]: > 100 µM
- TGI [21]: > 100 µM
- TGI [23]: > 100 µM
- TGI [24]: > 100 µM
- TGI [25]: > 100 µM
- TGI [26]: > 100 µM
- TGI [27]: > 100 µM
- TGI [28]: > 100 µM
- TGI [29]: > 100 µM
- TGI [30]: > 100 µM
- TGI [31]: > 100 µM
- TGI [32]: > 100 µM
- TGI [33]: > 100 µM
- TGI [34]: > 100 µM
- TGI [35]: > 100 µM
- TGI [36]: > 100 µM
- TGI [37]: > 100 µM
- TGI [38]: > 100 µM
- TGI [39]: > 100 µM
- TGI [40]: > 100 µM
- TGI [41]: > 100 µM
- TGI [42]: > 100 µM
- TGI [43]: > 100 µM
- TGI [44]: > 100 µM
- TGI [45]: > 100 µM
- TGI [46]: > 100 µM
- TGI [47]: > 100 µM
- TGI [49]: > 100 µM
- TGI [50]: > 100 µM
- TGI [51]: > 100 µM
- TGI [52]: > 100 µM
- TGI [53]: > 100 µM
- TGI [54]: > 100 µM
- TGI [55]: > 100 µM
- TGI [56]: > 100 µM
- TGI [57]: > 100 µM
- TGI [58]: > 100 µM

SMILES: CC(=O)NC1=C(NCCCl)C(=O)c2ccccc2C1=O
- TGI [1]: > 100 µM
- TGI [2]: > 100 µM
- TGI [3]: > 100 µM
- TGI [4]: 84.1 µM
- TGI [5]: > 100 µM
- TGI [6]: > 100 µM
- TGI [7]: > 100 µM
- TGI [8]: 27.7 µM
- TGI [9]: 96.2 µM
- TGI [10]: > 100 µM
- TGI [12]: 69.8 µM
- TGI [13]: 27.1 µM
- TGI [15]: > 100 µM
- TGI [16]: 66 µM
- TGI [17]: > 100 µM
- TGI [19]: > 100 µM
- TGI [20]: > 100 µM
- TGI [21]: > 100 µM
- TGI [23]: > 100 µM
- TGI [24]: > 100 µM
- TGI [25]: > 100 µM
- TGI [27]: 30.5 µM
- TGI [28]: 75.1 µM
- TGI [29]: 52.4 µM
- TGI [30]: > 100 µM
- TGI [31]: > 100 µM
- TGI [32]: 31.1 µM
- TGI [33]: 42.9 µM
- TGI [34]: > 100 µM
- TGI [59]: > 100 µM
- TGI [35]: > 100 µM
- TGI [36]: > 100 µM
- TGI [37]: > 100 µM
- TGI [38]: > 100 µM
- TGI [39]: > 100 µM
- TGI [40]: 75.5 µM
- TGI [41]: 80.1 µM
- TGI [42]: > 100 µM
- TGI [44]: 33.7 µM
- TGI [45]: 74 µM
- TGI [46]: > 100 µM
- TGI [47]: > 100 µM
- TGI [48]: 59.3 µM
- TGI [49]: > 100 µM
- TGI [50]: > 100 µM
- TGI [51]: > 100 µM
- TGI [52]: > 100 µM
- TGI [53]: > 100 µM
- TGI [54]: > 100 µM
- TGI [55]: 48.1 µM
- TGI [56]: 38.3 µM
- TGI [57]: > 100 µM
